This is an account of results in patent US12565520B2, “Chemically-stabilized allosteric modulators of leucine-rich repeat kinase 2 (LRRK2)” (UNIVERSITY OF GEORGIA RESEARCH FOUNDATION, INC., priority 2020, dated 2026).

“Also recorded” adds a separate entry of the source.

Assay [1] has as its system LRRK2 (R1441G) kinase activity as Rab10 phosphorylation. Kind of assay: Rab10 pT73 phosphorylation immunoblot, HEK293T with LRRK2 R1441G and Rab29. In kind it is cell-based. As to conditions: LRRK2 R1441G + Rab29, 10 μM peptide, 12 h / 15 hours. As to the method: Rab10 Immunoblotting. HEK293T cells were co-transfected at a confluency of 50-60% with Strep-FLAG tagged LRRK2 R1441G and Rab29 as well as Rab10 (both HA-FLAG tagged) using polyethylenimine (PEI, Polyscience) as previously described(46). […] […], cells were lysed in twice, first in lysis buffer (30 mM Tris-HCL (pH7.4), 150 mM NaCl, 0.5% NP-40, complete protease Inhibitor cocktail and phosphatase inhibitor cocktail II & III (Sigma Aldrich) and again after centrifugation in 1% SDS. Cleared lysates were adjusted to 2 μg/μl with 5× Laemmli Buffer and lysis buffer. Samples were used for denaturating electrophoresis using 10% Bis-Tris gels (NuPAGE) and for western blotting onto PVDF membranes. Membranes were blocked with 5% non-fat dry milk dissolved in TBS-T (30 mM Tris-HCL (pH 7.4), 0.1% Tween 20) and separated horizontally at 140 kDa. Primary antibodies were added TBS-T with 5% BSA (pT73 Rab10) 1:2,000 (ab230261) and pS1292 LRRK2 1:2,000 (ab203181)) or total protein antibodies (Rab10(ERP13424) 1:5,000 (ab181367) or LRRK2 (clone 24D8) 1:5,000 (Gloeckner lab)), respectively. Membranes were incubated with HRP-conjugated secondary antibodies diluted in TBS-T with 5% milk prior to imaging using ECL Plus (Pierce) with exposure to photometric films (Hyperfilms, GE Healthcare). […]
In general terms: In western blotting, separated proteins are transferred to a membrane and probed.

In a further assay the target is T1, GFP-tagged LRRK2 (Homo sapiens, UniProt Q5S007).
T1 construct: co-transfecting HEK293 cells with GFP-tagged and strep-tagged full-length LRRK2; expressed in transfected cells; host or cells: HEK293
Kind of assay: Pulldown of LRRK2 from cell lysate with biotin-labeled peptides. In kind it is binding. As to conditions: 10 μM biotin-labeled peptide, lysate of HEK293 cells overexpressing GFP-tagged LRRK2. How it is done:
Pulldown experiments. Fresh lysate of HEK293 cells overexpressing GFP-tagged LRRK2 was mixed and incubated with biotin-labeled peptide (added to a final concentration of 10 μM) and incubated at 4° C. overnight. The mixture was then applied to Magnetic Strep-beads (MagStrep ‘Type3’ XT Beads (IBA, Gottingen, Germany)) and the immune complex was washed twice (10 mM Tris/HCl pH 7.5, 150 mM NaCl) and subjected to immunoblot analysis. Samples were separated on 6% Tris-Glycine gels, transferred onto a nitrocellulose membrane (GE Lifesciences), and processed for western analysis. Membranes were blocked in 5% dry milk in Tris-buffered saline plus Tween-20 for 1 hour and probed with rat monoclonal anti-LRRK2 (clone 24D8 1:1000, Gloeckner lab(69)) and incubated overnight at 4° C. with gentle shaking. Membranes were then washed three times for 10 min at room temperature in PBS containing 0.1% or 0.05% Tween-20 and then incubated for 1 hour with anti-rat IgG-HRP (sc-2750, Santa Cruz Biotechnology). Membranes were again washed three times for 10 min at room temperature in PBS containing 0.1% or 0.05 Tween-20. The membranes were coated with enhanced chemiluminescent (ECL) reagent (WesternSure PREMIUM, Li-COR biosciences), and proteins were detected using the C-Digit Imaging System (Li-COR Biosciences). […]

A further assay concerns RAW 264.7 cells. Kind of assay: ROS production assay (CellROX, zymosan). As to conditions: 10 μM peptide 9 hours, then Zymosan 50 μg/mL 30 mins. Format: cell-based. How it is done:
ROS production assay. Flow cytometry was used to measure reactive oxygen species (ROS) through fluorescence emission of the CellROX deep red dye (Life Technologies). RAW264.7 cells (ATCC® SC-6003™) were plated at 120,000/well in a 96-well low-adherence tissue culture plate (Costar).

Assay [2] has as its system primary cortical neurons overexpressing G2019S-LRRK2. The experiment in a line: Neuronal apoptosis in primary cortical neurons expressing G2019S-LRRK2. In kind it is cell-based, mouse. As to conditions: 10 μM peptide, 48 h. The source says: Preparation of primary mouse neuronal cultures, and assessment of neuronal death. Embryonic day 16 (E16) pregnant C57BL mice were used in this study, with primary cortical neurons prepared as described (N. Antoniou et al., A motif within the armadillo repeat of Parkinson's-linked LRRK2 interacts with FADD to hijack the extrinsic death pathway. Sci Rep 8, 3455 (2018)). Briefly, under aseptic conditions, cortices were removed and cut into small pieces before enzymatic digestion (trypsin 0.05% and 100 μg/ml DNAse) and mechanical dissociation. Cells were centrifuged and counted and plated at a density of 150,000/cm^2 in BrainPhys neuronal culture medium (StemCell Technologies) supplemented with SM1 Neuronal Supplement (StemCell Technologies), L-glutamine (0.5 mM) and penicillin/[…]. After 3-4 DIV, neurons were transfected using Lipofectamine 2000 (Thermo Scientific) as per the manufacturer's instructions. Neurons were transfected with Flag-tagged WT or mutant (G2019S) human LRRK2 (as described previously). The following day, the treatment of neurons with fluorescently labeled peptides (at 10 μM final concentration) was initiated. The peptides were replenished in the neuronal medium after 24 hours, and the indicated concentrations. […] For quantification of apoptotic neuronal profiles, the approach described previously was used.

Assay [3] relates to endogenous LRRK2 kinase activity as Rab10 phosphorylation. The experiment in a line: Rab10 phosphorylation in untransfected A549 cells. The note with it: 10 μM. In kind it is cell-based. The source says:
To test whether disruption of LRRK2 dimerization can also attenuate Rab phosphorylation, a hyperactive LRRK2 mutant (R1441G) and Rab29 were overexpressed in HEK293T cells (Z. Liu et al., LRRK2 phosphorylates membrane-bound Rabs and is activated by GTP-bound Rab7L1 to promote recruitment to the trans-Golgi network. Hum Mol Genet 27, 385-395 (2018); and E. Purlyte et al., Rab29 activation of the Parkinson's disease-associated LRRK2 kinase. The EMBO Journal 37, 1-18 (2018)). Overexpression of Rab29 induces recruitment of LRRK2 to the trans-golgi network (TGN) and activates it there. After 24-hour transfection, cells were then treated with 10 μM peptide for 15 hours. […] To test the effect of the dimerization inhibitors on endogenous LRRK2 function, we performed a similar experiment using non-transfected A549 cells which natively express detectable levels of both LRRK2 and Rab10.

T1 sequence (Q5S007 whole entry): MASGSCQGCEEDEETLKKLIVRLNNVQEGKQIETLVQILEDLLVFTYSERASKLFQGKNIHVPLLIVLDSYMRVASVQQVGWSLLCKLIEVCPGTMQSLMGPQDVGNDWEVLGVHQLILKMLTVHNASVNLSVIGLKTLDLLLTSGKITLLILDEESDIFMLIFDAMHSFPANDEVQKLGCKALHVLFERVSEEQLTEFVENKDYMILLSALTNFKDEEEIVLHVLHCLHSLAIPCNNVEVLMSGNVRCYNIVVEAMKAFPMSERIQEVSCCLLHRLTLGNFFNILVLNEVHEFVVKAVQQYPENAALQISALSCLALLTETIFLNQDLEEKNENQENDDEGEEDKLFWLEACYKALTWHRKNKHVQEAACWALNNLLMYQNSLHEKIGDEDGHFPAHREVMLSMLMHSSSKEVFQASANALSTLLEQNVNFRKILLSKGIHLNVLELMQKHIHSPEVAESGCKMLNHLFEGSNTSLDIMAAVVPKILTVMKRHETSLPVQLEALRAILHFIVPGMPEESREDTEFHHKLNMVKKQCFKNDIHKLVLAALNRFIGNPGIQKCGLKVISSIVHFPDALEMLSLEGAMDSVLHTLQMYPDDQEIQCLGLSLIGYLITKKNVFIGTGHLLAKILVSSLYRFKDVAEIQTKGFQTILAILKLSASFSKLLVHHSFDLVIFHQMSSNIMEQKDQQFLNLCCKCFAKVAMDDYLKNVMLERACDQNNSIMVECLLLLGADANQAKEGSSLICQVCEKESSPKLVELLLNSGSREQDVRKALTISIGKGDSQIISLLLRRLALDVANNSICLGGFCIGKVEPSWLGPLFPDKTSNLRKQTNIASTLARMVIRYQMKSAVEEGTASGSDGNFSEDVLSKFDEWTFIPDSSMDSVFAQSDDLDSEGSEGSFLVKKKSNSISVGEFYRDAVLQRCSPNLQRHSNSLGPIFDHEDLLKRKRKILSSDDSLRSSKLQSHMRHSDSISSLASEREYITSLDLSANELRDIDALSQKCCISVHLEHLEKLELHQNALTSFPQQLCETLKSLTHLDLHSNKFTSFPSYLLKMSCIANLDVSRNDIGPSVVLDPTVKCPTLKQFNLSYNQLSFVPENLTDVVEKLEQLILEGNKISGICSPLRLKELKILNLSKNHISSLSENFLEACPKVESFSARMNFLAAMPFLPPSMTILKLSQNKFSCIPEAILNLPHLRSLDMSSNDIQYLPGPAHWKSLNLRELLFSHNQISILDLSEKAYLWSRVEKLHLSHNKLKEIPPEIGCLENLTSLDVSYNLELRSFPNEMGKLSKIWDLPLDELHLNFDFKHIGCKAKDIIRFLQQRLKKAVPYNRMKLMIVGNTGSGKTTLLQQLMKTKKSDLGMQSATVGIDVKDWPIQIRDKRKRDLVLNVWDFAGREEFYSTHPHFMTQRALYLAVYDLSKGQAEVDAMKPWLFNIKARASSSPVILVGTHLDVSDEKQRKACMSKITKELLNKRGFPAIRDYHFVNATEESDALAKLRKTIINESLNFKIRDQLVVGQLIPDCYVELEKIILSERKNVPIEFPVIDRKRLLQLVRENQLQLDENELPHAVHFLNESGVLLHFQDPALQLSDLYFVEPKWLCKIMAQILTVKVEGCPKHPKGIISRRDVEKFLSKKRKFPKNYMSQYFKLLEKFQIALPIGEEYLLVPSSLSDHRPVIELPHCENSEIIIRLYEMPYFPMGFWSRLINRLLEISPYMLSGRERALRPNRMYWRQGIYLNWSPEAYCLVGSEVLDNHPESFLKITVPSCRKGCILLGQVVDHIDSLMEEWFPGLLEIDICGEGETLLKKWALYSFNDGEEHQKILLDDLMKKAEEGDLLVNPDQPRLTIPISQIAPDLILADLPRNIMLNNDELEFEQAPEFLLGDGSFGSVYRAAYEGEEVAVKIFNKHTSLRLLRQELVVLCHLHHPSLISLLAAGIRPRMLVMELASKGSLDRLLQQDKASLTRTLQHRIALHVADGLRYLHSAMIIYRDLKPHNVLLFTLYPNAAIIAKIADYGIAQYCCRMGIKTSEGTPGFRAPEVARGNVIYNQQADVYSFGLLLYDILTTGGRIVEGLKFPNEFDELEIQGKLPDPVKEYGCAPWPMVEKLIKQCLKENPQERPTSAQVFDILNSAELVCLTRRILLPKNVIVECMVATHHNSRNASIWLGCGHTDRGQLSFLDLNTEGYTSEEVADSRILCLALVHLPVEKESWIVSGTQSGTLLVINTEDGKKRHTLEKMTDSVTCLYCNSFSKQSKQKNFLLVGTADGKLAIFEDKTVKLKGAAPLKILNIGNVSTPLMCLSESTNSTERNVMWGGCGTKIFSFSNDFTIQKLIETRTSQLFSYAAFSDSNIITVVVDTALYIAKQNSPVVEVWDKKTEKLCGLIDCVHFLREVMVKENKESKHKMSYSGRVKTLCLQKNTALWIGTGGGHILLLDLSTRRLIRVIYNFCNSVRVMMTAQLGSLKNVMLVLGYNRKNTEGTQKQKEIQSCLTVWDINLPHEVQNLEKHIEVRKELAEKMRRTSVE

“Roc-domain stapled peptide formed from SEQ ID NO. 6 DEKQRKAC(Nle)SKITKEXLNKX, X = (S)-2-(4′-pentenyl)alanine; PEG3 linker, FAM or biotin label (DEKQRKACXSKITKEXLNKX; hydrocarbon staple; Nle; PEG3 linker; FAM or biotin; ROC domain petide; (9)..(9) Xaa is norleucine; (16)..(16) Xaa is (S)-2-(4′-pentenyl)alanine; (20)..(20) Xaa is (S)-2-(4′-pentenyl)alanine) [LRIP4]”: the “Rab10 phosphorylation (pT73)” value in assay [1] is on record as “reduced Rab10 phosphorylation with LRIP4 inducing a more pronounced effect; also recorded: reduced after treatment with LRIP4 or LCIP1, with LRIP4 having a larger inhibitory effect”. Besides, in the assay with GFP-tagged LRRK2, the “LRRK2 pulled down by biotin-labeled peptide (immunoblot)” value was “successfully bound to LRRK2; also recorded: pulled down considerably more LRRK2 as compared to LCIP1; also recorded: both peptides bound LRRK2”. The “zymosan induced ROS production” value with RAW 264.7 cells was “significant reduction of zymosan induced ROS production to an extent comparable to MLi-2”. In assay [2], the neurons undergoing apoptosis result was “sharp decline in neurons undergoing apoptosis, especially for LRIP4 treated cells”. For the same substance, the “Rab10 phosphorylation by endogenous LRRK2” value in assay [3] is given as “significant reduction in phosphorylation of Rab10; also recorded: inhibition of Rab10 phosphorylation”.
As to “COR-domain stapled peptide formed from SEQ ID NO. 16 KGEGEXLLKXWK, X = (S)-2-(4′-pentenyl)alanine; PEG3 linker, FAM or biotin label (hydrocarbon staple; PEG3 linker; FAM or biotin; COR domain peptide; (6)..(6) Xaa is (S)-2-(4′-pentenyl)alanine; (10)..(10) Xaa is (S)-2-(4′-pentenyl)alanine) [LCIP1]”, in assay [1], the “Rab10 phosphorylation (pT73)” value is “reduced Rab10 phosphorylation”. Further, the “LRRK2 pulled down by biotin-labeled peptide (immunoblot)” value with GFP-tagged LRRK2 is reported as “successfully bound to LRRK2; also recorded: both peptides bound LRRK2”. Moreover, the “zymosan induced ROS production” value in the assay on RAW 264.7 cells was “no statistically significant consequence”. Besides, in assay [2], the neurons undergoing apoptosis result was “sharp decline in neurons undergoing apoptosis”.
